{"source": "patent US20250017888A1", "about": "“COMPOUNDS FOR TREATING DISEASES ASSOCIATED WITH HYALURONAN OVERPRODUCTION” (THE ROYAL VETERINARY COLLEGE, priority 2021, published 2025)", "assay_type_in_all_cases": "in vivo, mouse", "key": {"Str/ort mice [1]": {"tested_on": "Str/ort mice", "experiment": "Micro-CT of tibial trabecular and cortical bone in Str/ort mice", "protocol": "At 10-13 weeks of age, 21 male Str/ort mice (n=7/group) were assigned randomly to vehicle, hylin-betaine and xantho-betaine groups and were treated intraperitoneally 18 weeks with either vehicle (5% DMSO in 95% peanut oil), 50 mg/kg compound of Example 1 (“hylin-betaine”) in 5% DMSO and 95% peanut oil or 50 mg/kg compound of Example 2 (“xantho-betaine”) in 5% DMSO and 95% peanut oil. Micro-CT scanning and analysis were performed as described previously. Briefly, tibiae from vehicle, hylin-betaine and xantho-betaine treated groups were scanned using the Skyscan 1172 (Skyscan, Kontich, Belgium), with x-ray tube operated at 50 kV and 200 Micro-A, 1600 ms exposure time with a 0.5 mm aluminium filter and a voxel size of micro-m 5. The scanning time for each sample was approximately 2 hours. The slices were then reconstructed using NRecon 1.6.9.4 (Skyscan, Kontich, Belgium). 2D/3D analyses were performed using CTAn 1.15.4.0+ version software (Skyscan, Kontich, Belgium). Additionally, 3D visualization and production of colour-coded images of trabecular, cortical and skull bones were conducted using Avizo 9.0.0 software (FEI, Oregon USA). • a. Trabecular analysis: prior to analysis, Micro-CT images were re-oriented in DataViewer 1.5.0 (Skyscan, Kontich, Belgium), such that the cross-section within the transverse plane was perpendicular to the long axis of the bone. Tibial length was measured in CTAn 1.15.4.0+ software using a straight line measuring tool and the appearance of the trabecular ‘bridge’ connecting the two primary spongiosa bone ‘islands’ was set as reference point for analysis of the metaphyseal trabecular bone adjacent to the epiphyseal growth plate. 5% of the total bone length from this point (towards the diaphysis) was utilised for trabecular analysis of the proximal tibia. The trabecular region of interest was drawn freehand using the selection tool of CTAn, a few voxels away from the endocortical surfaces in order to avoid inclusion of remnants of primary spongiosa associated with cortical bone. The selected trabecular regions of interests were analysed using CTAn BatMan software (Skyscan, Kontich, Belgium) and morphometric parameters were recorded. • b. Whole bone cortical analysis: Whole bone analysis was performed on datasets derived from CT scans using BoneJ (version 1.4.0), an ImageJ plugin. Following segmentation, alignment and removal of fibula from the dataset, a minimum bone threshold was selected using a histogram based method in ImageJ which utilises all pixels in a stack to construct a histogram and was further confirmed using ImageJ “threshold function”. The threshold ranged between 22000-22100 and was applied to all datasets to separate higher density bone from soft tissues and air. This threshold was used in “Slice Geometry” function within BoneJ to calculate bone cross sectional area (CSA), second moment of area around the minor axis (Imin), second moment of area around the major axis (Imax), mean thickness determined by local thickness in two dimensions (Ct.Th), ellipticity and resistance to torsion (J). The most proximal (15%) and the most distal portions (25%) of tibial length were excluded from analysis, as these regions include trabecular bone."}, "Str/ort mice [2]": {"tested_on": "Str/ort mice", "experiment": "Histology and grading of articular cartilage lesions in Str/ort mice", "protocol": "At 10-13 weeks of age, 21 male Str/ort mice (n=7/group) were assigned randomly to vehicle, hylin-betaine and xantho-betaine groups and were treated intraperitoneally 18 weeks with either vehicle (5% DMSO in 95% peanut oil), 50 mg/kg compound of Example 1 (“hylin-betaine”) in 5% DMSO and 95% peanut oil or 50 mg/kg compound of Example 2 (“xantho-betaine”) in 5% DMSO and 95% peanut oil. Dissected right knees were fixed in neutral buffered formalin, decalcified (Immunocal, Quartett, Berlin), wax-embedded and 6 μm coronal sections cut. Multiple sections (five/slide) from 120 μm intervals across the whole joint were stained with Tollidine blue (0.1% in 0.1 M acetate buffer, pH 5.6) and AC lesion severity graded. Sections from right vehicle, hylin-betaine and xantho-betaine treated Str/ort joints were stained with Safranin O. Sections were dewaxed, and AC lesion severity was scored in Str/ort mice by the methods of Chambers et al., (Chambers et al Expression of collagen and aggrecan genes in normal and osteoarthritic murine knee joints. Osteoarthritis and cartilage/OARS, Osteoarthritis Research Society. 2002; 10(1):51-61) consistent with an internationally-recognized system. Briefly, grade 0: normal; grade 1: rough surface or superficial zone lesions; grade 2: lesion down to the intermediate zone; grade 3: lesions down to tidemark or loss of AC; grades 4 and 5: AC loss across between 20% and 50% or 50-80% of condylar surface; grade 6: loss with subchondral bone exposure. Multiple slides (˜10), each containing five 6 μm sections sampled at 120 μm intervals spanning each entire joint were graded. Grading in each joint compartment (lateral/medial, tibia/femur) allowed for a maximum (most severe) grade to be assigned in each section, and used to produce an overall ‘average’ maximum grade in each group of mice, for the entire joint and for each compartment. In addition, a mean score was produced for each joint and for each compartment and these similarly used to produce an overall ‘average’ mean grade in each group of mice. Mean grades provide a measure of the ‘extent’ of AC lesion (representing relative volume) in each joint/compartment."}, "Str/ort mice [3]": {"tested_on": "Str/ort mice", "experiment": "Micro-CT of tibial trabecular and cortical bone in Str/ort mice", "details": "10-90% of total tibial length, vs vehicle"}, "Str/ort mice [4]": {"tested_on": "Str/ort mice", "experiment": "Health evaluation of treated Str/ort mice", "details": "50 mg/kg intraperitoneally, 18 weeks, vs vehicle", "protocol": "(§1) At 10-13 weeks of age, 21 male Str/ort mice (n=7/group) were assigned randomly to vehicle, hylin-betaine and xantho-betaine groups and were treated intraperitoneally 18 weeks with either vehicle (5% DMSO in 95% peanut oil), 50 mg/kg compound of Example 1 (“hylin-betaine”) in 5% DMSO and 95% peanut oil or 50 mg/kg compound of Example 2 (“xantho-betaine”) in 5% DMSO and 95% peanut oil.\nTo assess the health status after hylin-betaine and xantho-betaine treatment, mice were monitored for their health status. The monitoring criteria were body surface temperature, body weight, gait, coat condition, skin tenting for dehydration, hunching, activity, breathing rate and general body condition. Mice were scored blind for each one of these criteria from 1-5 except for body weight and temperature."}, "Str/ort mice [5]": {"tested_on": "Str/ort mice", "experiment": "Gait analysis (treadmill, Digigait) in Str/ort mice", "protocol": "as §1\nGait was monitored using a treadmill-based video system (DigigaitTM system) in three treatment groups of mice at three time point, week 1, week 9 and week 18 of treatment. The number of mice was 7, 7 and 5 in groups 1, 2 and 3, respectively.\n[…] gait descriptors were used for the analyses. Thirty-four descriptors were obtained directly from the software of the system in the 4 limbs (LF: left front; RF: right front; LR: left rear; RR: right rear). All the others (143) were calculated indexes from gait measurements including swing, stance, brake, propel and stride times, stride length, frequency and coefficient of variation, paw area and paw angle and the variability of those two traits, the coefficient of variation of swing duration mid line distance, and minimum and maximum dAdT. The ratios of times were calculated in the 4 limbs: Brake, Propel, and Swing times relative to Stance and Stride times, Stance/Swing and Stance/Stride. In addition, the following additional indexes were considered:\nIn order to investigate whether there were differences among groups for each descriptor at the three experimental dates, an ANOVA was performed using data corresponding to each descriptor and date. Bonferroni correction was applied to counteract the problem of multiple comparisons.\nA t-test analysis was also performed comparing only two groups at a time. In order to assess whether differences between both groups could be due to differences in gait change regarding the initial condition (at 2014/12/23), two sets of analyses were performed for data at 2015/02/18 and 2015/04/14, respectively by using Logistic Regression Analysis. The model included two independent variables: the initial value for each descriptor and the difference between the corresponding value at 2015/02/18 (or 2015/04/14) and the initial value. Bonferroni correction was also applied."}, "[6]": {"details": "50 mg/kg intraperitoneally, 18 weeks, vs vehicle"}, "[7]": {"details": "50 mg/kg intraperitoneally, 18 weeks"}}, "note": "Entries after “also recorded” stand apart in the source; their conditions may differ."}
{"smiles": "COc1cc(/C=C/C(=O)/C=C/c2ccc(OC(=O)C[N+](C)(C)C)c(OC)c2)ccc1O.[Cl-]", "note": "[Hylin-betaine, 2-(4-((1E,4E)-5-(4-hydroxy-3-methoxyphenyl)-3-oxopenta-1,4-dien-1-yl)-2-methoxyphenoxy)-N,N,N-trimethyl-2-oxoethanaminium chloride]", "values": [{"measurement": "metaphyseal trabecular bone architecture and mass (tibial length, BV/TV, TV, BV, eccentricity, thickness, separation, number)", "setting": "Str/ort mice [1]; [6]", "value": "do not alter"}, {"measurement": "cortical cross-sectional area (CSA)", "setting": "Str/ort mice [1]; apart from one distal region and a region close to tibio-fibula junction", "value": "do not significantly"}, {"measurement": "mean cortical cross-sectional thickness", "setting": "Str/ort mice [1]; multiple regions from −15-60% tibial length, vs vehicle", "value": "significantly enhanced"}, {"measurement": "second moment of area around minor axis (Imin)", "setting": "Str/ort mice [1]; vs vehicle, one region proximally", "value": "does not affect"}, {"measurement": "tibial ellipticity", "setting": "Str/ort mice [1]; vs vehicle, region ˜40-50% along the tibia", "value": "modified by xantho-betaine but not hylin-betaine"}, {"measurement": "second moment of area around major axis (Imax)", "setting": "Str/ort mice [1]; vs vehicle, ˜35-55% of tibial length", "value": "did not affect"}, {"measurement": "effect on articular cartilage lesions / development of OA (overall)", "setting": "Str/ort mice [2]; [6]", "value": "prevents/improves articular cartilage lesions; also recorded: protective effect"}, {"measurement": "Mean OA scores", "setting": "Str/ort mice [2]; tibial and femoral lateral knee joint compartments, vs vehicle", "value": "statistically significantly lower"}, {"measurement": "maximum OA score", "setting": "Str/ort mice [2]; vs vehicle treated Str/ort mice", "value": "trend for lower maximum score"}, {"measurement": "effect on cortical bone (overall)", "setting": "Str/ort mice [3]", "value": "significantly alter"}, {"measurement": "health status: weight, hunching, gait, activity, vocalisation and respiration scores, coat condition", "setting": "Str/ort mice [4]", "value": "does not alter"}, {"measurement": "mice that refused to run (drop-out) during the gait studies", "setting": "Str/ort mice [5]; [7]", "value": "no mice"}, {"measurement": "percentage of drop-out regarding the total number of runs", "setting": "Str/ort mice [5]; [7]", "value": 0, "unit": "%"}, {"measurement": "distribution of gait data (runs) by treatment group", "setting": "Str/ort mice [5]; 2014 Dec. 23", "value": 7}, {"measurement": "distribution of gait data (runs) by treatment group", "setting": "Str/ort mice [5]; 2015 Apr. 14", "value": 7}, {"measurement": "distribution of gait data (runs) by treatment group", "setting": "Str/ort mice [5]; 2015 Feb. 18", "value": 7}, {"measurement": "effect on all gait descriptors", "setting": "Str/ort mice [5]; any time point, compared with vehicle group", "value": "no significant effect"}]}
